Source: patent US20250177548A1, “FUSOGENIC PEPTIDE COMPOSITIONS AND METHODS OF CARGO DELIVERY” (CLEMSON UNIVERSITY, priority 2022, published 2025)
Values joined by “and” are separate entries in the source; they are usually repeats but may differ in a detail not shown here. Equal values may be shown once. Non-standard residues stand in square brackets, D forms with d. No end group written: not given here. pG = not defined here

Legend:
RNase A = assay: gel assay of siRNA protection from RNase A degradation; type: in vitro ADME; details: 1 hour, several N:P ratios
Procedure: (§1) Gel Shift Assays. DIVA3, DIV3H, and DIV3W (all three denoted as DIV3 (X)) peptides suspended in RNase-free water (10 μM), were thawed, and kept on ice prior to complexation with 10 μM of negative control siGENOME non-targeting siRNA #5 (siNT, GE Healthcare Dharmacon, Lafayette, CO) in RNase-free water and incubated for 20 minutes at room temperature to allow the formation of DIV3 (X)-siNT complexes. Various molar ratios of peptides were complexed with siNT at increasing N:P molar ratios to determine the minimum molar ratio necessary to completely complex free siRNAs using an electrophoretic mobility shift assay. To determine the ability of each peptide variant to protect siRNAs from degradation, DIV3 (X)-siNT complexes or siNT alone was left untreated or incubated with either 50% v/v FBS or 5 μg/mL RNase A at 37° C. for one hour. Next, complexes were dissociated using 6% sodium dodecyl sulfate (SDS). Samples were added to a 2% agarose gel and run at 100 V. Gels were stained with ethidium bromide, destained with Milli-Q water, and imaged using a ChemiDoc XRS imager (Bio-Rad, Hercules, CA).
(§2) Characterization of Nanoparticle Size and Stability. To determine the minimum molar ratio necessary to completely complex free siRNAs, increasing N:P molar ratios of LHRH, DIV3W, and LHRH-DIV3W peptide were complexed with siRNAs and electrophoresed using a electrophoretic mobility shift assay. Molar ratios, shown as N:P, are representations of the molar amine peptide content in relation to 1 mole of phosphate group siRNA content. To determine the ability of the peptides to protect siRNAs from serum- or RNase-mediated degradation, LHRH and LHRH-DIV3W complexes were formed in RNase-free water with siNT at increasing N:P molar ratios and incubated at 37° C., 5% CO2, 50% v/v FBS, 5 μg/mL RNase A, or 50% v/v RNase free water for 1 hour. Peptide/siRNA complexes were dissociated using 6% sodium dodecyl sulfate (SDS) prior to electrophoresis in a 2% agarose gel run at 100 V. Gels were stained with ethidium bromide, washed with Milli-Q water, and imaged with a BioRad ChemiDoc XRS imager (BioRad, Hercules, CA).
(§3) Peptides VA-LD and GF-LD, comprising the cleavable linker VA or GLFG, respectively, between the LHRH target sequence and the DIV3W peptide, and non targeting siRNA were electrostatically complexed at increasing N:P ratios then subjected to agarose gel electrophoresis to determine optimal siRNA binding for each peptide. […] Peptide-siRNA nanocomplexes at increasing N:P ratios for peptides for VA-LD (FIG. 30A) and GF-LD (FIG. 30C) were incubated in either Rnase A enzyme or in 50% fetal bovine serum (FBS) for 1 h, dissociated using SDS then subjected to gel electrophoresis to visualize siRNA bands. Gels showing increasing N:P ratios of peptide:siRNA for VA-LD (FIG. 30B) and GF-LD (FIG. 30D) from 20:1 to 80:1 N:P; white bands are indicative of intact siRNA

[1] = gel assay of siRNA protection from degradation in 50% serum; type: in vitro ADME; details: 50% FBS, 1 hour, several N:P ratios
Procedure: as §1, §2, §3

CAOV3 cells [2] = assay: cellular uptake of labeled siRNA by flow cytometry; type: cell-based; details: for uptake efficiency: 80:1
Procedure: (§4) Cellular Uptake. OVCAR3 and CAOV3 cells were prepared at 50,000 cells per well in a 24-well plate. […] Post-incubation, media was aspirated and cells were washed with 1× PBS. To counterstain the nuclei, SuperSignal NucBlue Hoechst stain (Thermo Fisher, Waltham, MA) was added to the cells for 30 minutes, followed by an additional 1×PBS wash. Subsequent imaging was performed using an EVOS FL Microscope (Thermo Fisher) at 10× magnification. For flow cytometric analysis, cells were detached, resuspended in 1× PBS, and analyzed using an Attune NXT Acoustic flow cytometer (Invitrogen, Carlsbad, CA) with the blue laser line and BL2 (574/26 nm) channel.
(§5) Cellular Uptake and Targeting Specificity. Observation of cell uptake was performed by seeding OVCAR3 and CAOV3 cells at a density of 50,000 cells per well in a 24-well plate. LHRH and LHRH-DIV3W peptides were complexed with […] as previously described and delivered to cells at 20:1 to 80:1 N:P ratios. Each cell line was incubated with tandem peptide complexes for both 4- and 24-hour treatment periods. Following incubation, cell media was removed, and cells were washed with 1× PBS prior to the addition of 500 μL of 1×PBS and SuperSignal NucBlue Hoescht 33342 nuclear stain (Thermo Fisher, Waltham, MA). Cellular imaging was completed using an EVOS FL Microscope (Thermo Fisher) at 10×, 20×, and 40× magnification. Flow cytometry was completed after cell imaging and cells were trypsinized, resuspended in 1×PBS, and analyzed with an Attune NXT Acoustic Flow Cytometer (Invitrogen) with the red laser line and RL2 […] channel.

CAOV3 cells [3] = tested on: CAOV3 cells
Procedure: Cells were seeded at 10,000 cells per well with complete culture media in a 96-well plate and incubated overnight to allow the cells to attach. DIV3 (X) peptides were complexed with siNT at 40:1 to 80:1 N:P molar ratios. DIV3 (X)-siNT complexes were incubated with OVCAR3 or CAOV3 cells at a final concentration of 100 nM siRNA and 10% FBS for 24 hours. Media was then aspirated, cells were washed with 1× phosphate-buffered saline (PBS), and fresh media with 10% FBS was added to each well and incubated another 24 hours.
Viability was measured using an MTS Assay performed with CellTiter 96 AQueous One Solution Cell Proliferation Assay (Promega, Madison, WI). Assay reagent was added according to the manufacturer's protocol, and cells were incubated for 4 hours. Absorbance was read using a BioTek Synergy LX (BioTek, Winooksi, VT) plate reader at 490 nm. […]
OVCAR3 or CAOV3 cells were seeded at 10,000 cells per well with complete culture media in a transparent 96-well plate and incubated overnight to allow the cells to attach. […] After 24 hours of incubation the media was exchanged and after another 24-hour incubation at 37° C. in 5% CO2, viability was measured using an MTS Assay performed with the CellTiter 96 AQueous One Solution Assay (Promega, Madison, WI). […] Absorbance was read using a BioTek Synergy LX (BioTek, Winooksi, VT) plate reader at 490 nm.

CK2α protein = assay: Western blot of CK2α in OVCAR3 cells; type: cell-based; details: OVCAR3, 48 hours, 50:1 N:P ratio
Procedure: Western Blot. […] Cells were washed and treated with DIV3 (X)-siRNA complexes as previously described. Following the 48-hour treatment, cells were washed with 1× PBS and lysed with cold radioimmunoprecipitation assay (RIPA) buffer supplemented with protease inhibitor cocktail (Thermo Fisher). Protein concentrations were determined via bicinchoninic assay according to the manufacturer's protocol and absorbance was read at 562 nm. Equivalent protein concentrations for each treatment condition were separated by SDS-PAGE on a BioRad Stain-Free 10% gel according to BioRad protocols and transferred to a Stain-Free PVDF membrane using a wet transfer system. The PVDF membrane was cut at appropriate molecular weight intervals consistent with protein weights, then analyzed and blocked for 1 hour with 5% non-fat dried milk solution in 1× Tris-HCl-buffered-saline-0.1% Tween 20 (TBST) at room temperature. Blots were probed at 4° C. overnight with rabbit monoclonal anti-CK2α antibody (1:1000, Invitrogen) or mouse monoclonal anti-β-actin (1:10,000, Sigma-Aldrich, St. Louis, MO). […] Five additional washes with 1× TBST were performed and protein bands were detected with SuperSignal West Pico Plus Chemiluminescent Substrate (Thermo Fisher) and imaged using a BioRad ChemiDoc Imaging System.

OVCAR3 cells = assay: cellular uptake of labeled siRNA by flow cytometry; type: cell-based; parameters: uptake efficiency higher than DIV3W uptake: concentration or dose not given beside the values; details: for uptake efficiency, tandem vs LHRH peptide: FIG. 10E, 4 hr, cell line not stated
Procedure: as §4, §5

pGHWSY-(d) LLRPGGGGGWEADIVADIVWDIVADIVAGGG-(d) RRRRRRRRR ([pG]HWSY[dL]LRPGGGGGWEADIVADIVWDIVADIVAGGG[dR][dR][dR][dR][dR][dR][dR][dR][dR]; reading uncertain) [LHRH-DIV3W]
intact siRNA after incubation with RNase A (RNase A): Higher N:P ratios were required for full protection
intact siRNA after incubation in 50% serum [1]: fully protect siRNA cargo from degradation
uptake efficiency higher than DIV3W uptake (CAOV3 cells [2]; CAOV3): 11%
uptake efficiency (CAOV3 cells [2]; CAOV3, siNT-Cy5.5, 4 hours): 36.19%+9.67% and 36.19%±16.76%
uptake efficiency (CAOV3 cells [2]; CAOV3, siNT-Cy5.5, 24 hours): 63.47%+4.61% and 63.4%±4.6%
cytotoxicity of peptide alone (CAOV3 cells [3]): did not cause cytotoxic effects
CK2α protein expression (CK2α protein): slight reduction in protein band intensity
uptake efficiency, tandem vs LHRH peptide (OVCAR3 cells; 40:1): 66.81%±4.3%
uptake efficiency, tandem vs LHRH peptide (OVCAR3 cells; 60:1): 72.59%±6.87%
uptake efficiency, tandem vs LHRH peptide (OVCAR3 cells; 80:1): 76.26%±14.9%
uptake efficiency higher than DIV3W uptake (OVCAR3 cells; OVCAR3): 12%
uptake efficiency (OVCAR3 cells; OVCAR3, siNT-Cy5.5, 4 hours, 80:1): 79.58%+0.61% and 79.58%±1.05%
uptake efficiency (OVCAR3 cells; OVCAR3, siNT-Cy5.5, 24 hours, 80:1): 76.26%±15.56%
